Assay results as given in patent US5599953A, “C-glycoside analogues of N-(4-hydroxyphenyl)retinamide-O-glucuronide” (The Ohio State Research Foundation, priority 1995, dated 1997).
“Also recorded” adds a separate entry of the source. Read-outs that look alike come from different tables or passages of the source.

Tests used:
[1] = target: T1, human retinoic acid receptor γ (Homo sapiens, UniProt P13631); assay: Competition binding / retinoic acid binding, human retinoic acid receptor γ/BCV (FIG. 1)
T1 construct: made in house
T1 sequence (P13631 1-454): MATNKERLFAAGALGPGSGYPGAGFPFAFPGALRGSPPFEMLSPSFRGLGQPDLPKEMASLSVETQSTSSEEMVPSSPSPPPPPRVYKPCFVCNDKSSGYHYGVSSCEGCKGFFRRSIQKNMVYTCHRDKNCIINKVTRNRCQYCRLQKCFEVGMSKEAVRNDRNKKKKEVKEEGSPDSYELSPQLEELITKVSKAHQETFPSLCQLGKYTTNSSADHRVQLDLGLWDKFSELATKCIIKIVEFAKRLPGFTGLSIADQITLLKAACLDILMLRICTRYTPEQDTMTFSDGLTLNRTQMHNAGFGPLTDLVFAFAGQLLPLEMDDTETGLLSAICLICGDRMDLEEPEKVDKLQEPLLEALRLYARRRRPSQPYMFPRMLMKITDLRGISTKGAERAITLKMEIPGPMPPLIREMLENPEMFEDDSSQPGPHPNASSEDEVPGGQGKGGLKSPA

[2] = test system: DMBA-Induced Rat Mammary Tumors; assay: Effect on progression of DMBA-induced rat mammary tumors; format: in vivo; settings: 1 mmol/Kg in diet
Source text: The control rats received DMBA intubation only and AIN-76A rat chow.

[3] = test system: MCF-7 cells; assay: Growth inhibition of MCF-7 human mammary tumor cells; format: cell-based; settings: for IC50: Homo sapiens, MCF7, 168 h, 7 days, read-out: ED50 for growth inhibition of MCF-7 cells; for growth inhibition of MCF-7 cells, in words: comparison of drugs
Method: The antiproliferative activity of the drugs in MCF-7 human mammary tumor cell culture models were determined.
The MCF-7 cells were obtained originally from the Michigan Cancer Foundation. The cells were routinely grown as monolayers in T-25 plastic tissue culture flasks from Falcon, in Oxnard, Calif. containing 5.0 mL of B-10 medium consisting of Minimum Essential Medium (MEM, Earle's Base) supplemented with 1.0 mM MEM non-essential amino acid, 2.0 mM 1-glutamine,10% fetal bovine serum (FBS), and antibiotics. Culture conditions included a humidified atmosphere of 5% CO2 at 37° C. One-half of the medium was replenished twice a week. Cells were harvested by trypsinization upon confluency. All variables were evaluated in triplicate.
For the growth inhibition assay the MCF-7 cells were plated in 24-well plates at a density of 1.5×10^4 cells/cm^2. […] Control cultures were treated with an equivalent volume of absolute ethanol. On day 7 the cells were harvested by trypsinization and viability was assessed by trypan blue exclusion according to Ueda, H. et al. Cancer 1980, 46, 2203-2209. Total cell counts were obtained using a hemocytometer as well as a the Coulter Counter.

[4] = target: T2, mRARα (Mus musculus, UniProt P11416); assay: Drug competition with (3H)retinoic acid binding, mRARα; settings: read-out: percent reduction of binding of the (3H)retinoic acid, mRARα
T2 construct: made in house; host or cells: Spodoptera frugiperda insect cells, baculovirus (whole cell extract)
T2 sequence (P11416 1-462): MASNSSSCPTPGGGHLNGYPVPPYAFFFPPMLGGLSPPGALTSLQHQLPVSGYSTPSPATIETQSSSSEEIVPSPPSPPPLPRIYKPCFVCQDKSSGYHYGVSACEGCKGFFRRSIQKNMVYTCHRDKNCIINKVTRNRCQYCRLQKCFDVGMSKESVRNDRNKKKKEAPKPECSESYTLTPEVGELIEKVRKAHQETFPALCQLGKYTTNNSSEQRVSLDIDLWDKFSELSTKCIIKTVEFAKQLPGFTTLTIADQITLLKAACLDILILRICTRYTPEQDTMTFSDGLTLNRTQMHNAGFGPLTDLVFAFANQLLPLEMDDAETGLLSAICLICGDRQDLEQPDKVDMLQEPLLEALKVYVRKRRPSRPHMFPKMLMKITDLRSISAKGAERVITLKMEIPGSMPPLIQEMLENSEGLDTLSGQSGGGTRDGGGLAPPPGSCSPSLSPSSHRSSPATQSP

[5] = target: T3, mRARβ (Mus musculus, UniProt P22605); assay: Drug competition with (3H)retinoic acid binding, mRARβ; settings: read-out: percent reduction of binding of the (3H)retinoic acid, mRARβ; 1 μM drug; 5 nM [3H]RA
T3 construct: made in house; host or cells: Spodoptera frugiperda insect cells, baculovirus (whole cell extract)
T3 sequence (P22605 1-448 isoform P22605-3): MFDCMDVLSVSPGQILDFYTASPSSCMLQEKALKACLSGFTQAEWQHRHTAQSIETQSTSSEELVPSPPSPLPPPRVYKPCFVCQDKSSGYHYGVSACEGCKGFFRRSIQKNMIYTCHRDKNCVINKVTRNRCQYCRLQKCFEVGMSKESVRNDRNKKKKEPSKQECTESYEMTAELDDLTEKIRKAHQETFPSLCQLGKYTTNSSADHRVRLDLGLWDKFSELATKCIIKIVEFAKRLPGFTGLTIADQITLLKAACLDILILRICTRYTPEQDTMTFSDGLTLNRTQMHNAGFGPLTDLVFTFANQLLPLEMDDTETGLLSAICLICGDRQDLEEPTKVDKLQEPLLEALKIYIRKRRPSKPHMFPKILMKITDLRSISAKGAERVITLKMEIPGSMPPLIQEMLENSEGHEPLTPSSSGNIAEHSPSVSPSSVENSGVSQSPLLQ

[6] = target: T4, mRARγ (Mus musculus, UniProt P18911); assay: Drug competition with (3H)retinoic acid binding, mRARγ; settings: read-out: percent reduction of binding of the (3H)retinoic acid, mRARγ; 1 μM drug; 5 nM [3H]RA
T4 construct: made in house; host or cells: Spodoptera frugiperda insect cells, baculovirus (whole cell extract)
T4 sequence (P18911 1-458): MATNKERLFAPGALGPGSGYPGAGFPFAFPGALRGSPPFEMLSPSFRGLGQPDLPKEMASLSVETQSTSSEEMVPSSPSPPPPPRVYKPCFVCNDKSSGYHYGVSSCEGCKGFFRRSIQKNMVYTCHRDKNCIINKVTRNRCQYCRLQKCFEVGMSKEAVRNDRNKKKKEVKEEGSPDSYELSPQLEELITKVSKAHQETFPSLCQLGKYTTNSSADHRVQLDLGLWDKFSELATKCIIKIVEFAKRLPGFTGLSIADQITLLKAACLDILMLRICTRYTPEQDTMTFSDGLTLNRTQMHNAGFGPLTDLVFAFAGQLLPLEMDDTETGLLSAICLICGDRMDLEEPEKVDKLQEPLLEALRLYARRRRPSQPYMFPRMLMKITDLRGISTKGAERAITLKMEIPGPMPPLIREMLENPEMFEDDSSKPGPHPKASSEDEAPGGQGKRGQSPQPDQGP

[7] = test system: retinoic acid receptors α, β and γ; assay: Competition with retinoic acid for retinoic acid receptors (RAR α, β, γ), overall; format: binding; settings: 1 μM drug
[8] = Acid stability, 0.1N methanolic HCl at 37° C. for 2 hours; format: physicochemical
Method: To determine the stability of the C-glucopyranosiduronate linkage towards acidic conditions, samples of 4-HPR-O-glucuronide, 4-(retinamido)phenyl-C-glucuronide and 4-(retinamido)benzyl-C-glucuronide were treated with 0.1N methanolic HCl at 37° C. for 2 hours.

[9] = target: T5, β-glucuronidase (Homo sapiens, UniProt P08236); assay: Inhibition of β-glucuronidase mediated hydrolysis of 4-HPR-O-glucuronide; format: biochemical; settings: for IC50: 10% methanol as co-solvent, 4-HPR-O-glucuronide below 184.5 μM
T5 sequence (P08236 23-651): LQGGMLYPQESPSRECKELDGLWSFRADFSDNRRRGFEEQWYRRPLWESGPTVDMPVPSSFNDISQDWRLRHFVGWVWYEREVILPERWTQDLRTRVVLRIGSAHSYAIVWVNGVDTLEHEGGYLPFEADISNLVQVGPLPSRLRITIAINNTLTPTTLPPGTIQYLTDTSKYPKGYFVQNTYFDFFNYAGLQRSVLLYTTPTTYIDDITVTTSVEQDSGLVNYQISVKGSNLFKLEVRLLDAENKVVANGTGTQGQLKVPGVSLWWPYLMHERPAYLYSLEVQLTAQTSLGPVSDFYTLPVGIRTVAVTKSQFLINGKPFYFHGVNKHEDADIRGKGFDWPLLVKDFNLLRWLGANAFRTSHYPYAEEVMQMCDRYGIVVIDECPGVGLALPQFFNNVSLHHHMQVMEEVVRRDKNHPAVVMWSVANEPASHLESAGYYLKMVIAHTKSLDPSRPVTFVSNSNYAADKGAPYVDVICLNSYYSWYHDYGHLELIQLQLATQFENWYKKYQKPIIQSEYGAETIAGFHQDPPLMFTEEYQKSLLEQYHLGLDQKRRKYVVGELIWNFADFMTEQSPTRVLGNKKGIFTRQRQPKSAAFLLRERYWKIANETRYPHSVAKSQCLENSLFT
Source text: Chem. Soc., (1954), 76, 4872-4877.

[10] = test system: cancer; settings: literature; cited from earlier work
[11] = Acid stability, 0.1N HCl at 37° C. for two hours; format: physicochemical; settings: HPLC
Method: Similarly, 1-(D-glucopyranosyluronosyl) retinamide and RAG were treated with 0.1N HCl at 37° C. for two hours.

[12] = target: T5, β-glucuronidase; assay: Stability toward β-glucuronidase mediated hydrolysis; format: in vitro ADME; settings: within twenty minutes
Method: Similarly 1-(D-glucopyranosyluronosyl) retinamide and RAG were evaluated for their stability toward β-glucuronidase medicated hydrolysis under the same conditions as described above.

For `CC1=C(/C=C/C(C)=C/C=C/C(C)=C/C(=O)N[C@@H]2O[C@H](CO)[C@@H](O)[C@H](O)[C@H]2O)C(C)(C)CCC1` [1-(B-D-glucopyranosyl) retinamide, 1-(β-D-glucopyranosyl) retinamide], the Ki ([1]; 1.3 nM [3H]-retinoic acid) was 0.71 µM, the “fold less effective than retinoic acid in competing for [3H]-retinoic acid binding to retinoic acid receptor γ” value ([1]; vs retinoic acid, FIG. 1) was 1500 fold and the “effect on DMBA-induced mammary tumor development, in words” value [2] was “significantly prolonged the latency period of mammary cancer; also recorded: tumor induction was markedly delayed and reduced; also recorded: greater mammary tumor chemopreventive effect than does retinoic acid; also recorded: inhibit DMBA induced mammary tumor development”. The tumor latency ([2]; 15 mg DMBA oral) was 64 days, the tumor incidents ([2]; 110 days post intubation) was 58% and the tumor number/rat ([2]; 110 days post intubation) was 0.92 tumors per rat.
With `CC1=C(/C=C/C(C)=C/C=C/C(C)=C/C(=O)Nc2ccc(C[C@@H]3O[C@H](CO)[C@@H](O)[C@H](O)[C@H]3O)cc2)C(C)(C)CCC1` [4-(retinamido)benzyl-C-glucoside] the IC50 ([3]; Assay 1) was 3.4 µM, the “growth inhibition of MCF-7 cells, in words” value (“growth inhibition” for short) [3] was “exhibit the best growth inhibition of the cells” and the inhibition at 1 µM ([4]; 1 μM drug, 5 nM [3H]RA) was 56%. The inhibition at 1 µM [5] was 64%, the inhibition at 1 µM [6] was 77% and the “competition with retinoic acid for the receptors, in words” value (“competition with retinoic acid” below) [7] was “significantly compete with retinoic acid for the receptors”.
With `CC1=C(/C=C/C(C)=C/C=C/C(C)=C/C(=O)Nc2ccc(C[C@@H]3O[C@H](C(=O)O)[C@@H](O)[C@H](O)[C@H]3O)cc2)C(C)(C)CCC1` [4-(retinamido)benzyl-C-glucuronide] the “acid hydrolysis (stability)” value [8] was “remained essentially intact”, the “inhibition of β-glucuronidase mediated hydrolysis, in words” value [9] was “slightly more effective than the 4-(retinamido)phenyl-C-glucuronide” and the IC50 [9] was 236 µM. The IC50 ([3]; Assay 1) was 6.5 µM, the “growth inhibition” value [3] was “exhibit the best growth inhibition of the cells” and the inhibition at 1 µM ([4]; 1 μM drug, 5 nM [3H]RA) was 67%. The inhibition at 1 µM [5] was 82%, the inhibition at 1 µM [6] was 78% and the “competition with retinoic acid” value [7] was “significantly compete with retinoic acid for the receptors”.
Work on `CC1=C(/C=C/C(C)=C/C=C/C(C)=C/C(=O)Nc2ccc(C[C@@H]3OC[C@@H](O)[C@H](O)[C@H]3O)cc2)C(C)(C)CCC1` [4-(retinamido)benzyl-C-xyloside] yielded an IC50 ([3]; Assay 2) of 15 µM, an inhibition at 1 µM ([4]; 1 μM drug, 5 nM [3H]RA) of 12% and an inhibition at 1 µM [5] of 3%. The inhibition at 1 µM [6] was 2%.
For `CC1=C(/C=C/C(C)=C/C=C/C(C)=C/C(=O)Nc2ccc([C@@H]3O[C@H](CO)[C@@H](O)[C@H](O)[C@H]3O)cc2)C(C)(C)CCC1` [4-(retinamido)phenyl-C-glucoside], the IC50 ([3]; Assay 2) was 27 µM.
In the case of `CC1=C(/C=C/C(C)=C/C=C/C(C)=C/C(=O)Nc2ccc([C@@H]3O[C@H](C(=O)O)[C@@H](O)[C@H](O)[C@H]3O)cc2)C(C)(C)CCC1` [4-(retinamido)phenyl-C-glucuronide], the “acid hydrolysis (stability)” value [8] is reported as “remained essentially intact”, the “inhibition of β-glucuronidase mediated hydrolysis, in words” value [9] is reported as “act as inhibitors of β-glucuronidase mediated hydrolysis” and the IC50 [9] is reported as 267 µM. The IC50 ([3]; Assay 3) was 50 µM, the “growth inhibition” value [3] was “potency consistent with its glucoside analogue” and the inhibition at 1 µM ([4]; 1 μM drug, 5 nM [3H]RA) was 48%. The inhibition at 1 µM [5] was 47%, the inhibition at 1 µM [6] was 40% and the “competition with retinoic acid” value [7] was “significantly compete with retinoic acid for the receptors”.
In the case of `CC1=C(/C=C/C(C)=C/C=C/C(C)=C\C(=O)O)C(C)(C)CCC1` [13-cis-retinoic acid, reference compound], the inhibition at 1 µM [4] is listed as 28%, the inhibition at 1 µM [6] is listed as 4% and the cancer preventive activity [10] is listed as “display cancer preventive activity”.
In the case of `CC1=C(/C=C/C(C)=C/C=C/C(C)=C/C(=O)O[C@@H]2O[C@H](C(=O)O)[C@@H](O)[C@H](O)[C@H]2O)C(C)(C)CCC1` [RAG, retinoyl β-glucuronide, reference compound], the degraded at 2 h [11] is reported as about 50% and the “hydrolysis by β-glucuronidase within twenty minutes” value [12] is reported as “completely hydrolyzed”.
For `CC(=O)OC/C=C(C)/C=C/C=C(C)/C=C/C1=C(C)CCCC1(C)C` [retinyl acetate], the cancer preventive activity [10] is listed as “display cancer preventive activity”.
